Patent publication US9353090B2, “Heterocyclic carboxylic acids as activators of soluble guanylate cyclase” (Boehringer Ingelheim International GmbH, priority 2014, dated 2016)
Values after ≈ are worked out from the molar mass of the structure shown.

Columns and labels:
[1] = molecular target: human soluble guanylate cyclase alpha 1 and beta 1 subunits (sGC) (Homo sapiens (Human), UniProt Q02108+Q02153); assay: sGC cellular activator assay (cGMP, HTRF), in the presence and absence of 50% human serum; assay type: cell-based; settings: CHO cells stably expressing human sGC alpha 1/beta 1, preincubated with 40 microM ODQ; cGMP by HTRF; Table 2 does not state whether with or without 50% human serum
Description: The sGC cellular activator assay is performed in the presence and absence of 50% human serum (HS) using Chinese hamster ovary cells that have been stably transfected to express the human soluble guanylate cyclase alpha 1 and beta 1 subunits (sGC). Cells are preincubated with 40 microM 1H-[1,2,4]oxadiazolo[4,3-a]quinoxalin-1-one (ODQ), an sGC inhibitor, for one h in buffer containing 0.1% bovine serum albumin and 3-isobutyl-1-methylxanthine (IBMX). Concentration response curves are prepared for test compounds in DMSO. An intermediate dilution of the compounds is performed in either buffer containing IBMX or type AB HS containing IBMX. Diluted compounds are added to cells and they are incubated at room temperature for thirty min. cGMP is measured using a CisBio homogeneous time resolved fluorescence kit and the EC50 is calculated for each compound.
Representative compounds of the present invention were tested for activity the above assay. Preferred compounds have an EC50 of <1,000 nM in the above assay and more preferred compounds have an EC50<200 nM.

physchem = settings: kinetic from dmso stock
[2] = Human liver microsome (HLM) metabolic stability assay; assay type: in vitro ADME; settings: human liver microsomes
Description: The 5 time point, high-throughput human liver microsome (HLM) metabolic stability assay is designed to determine in vitro compound metabolism. Compounds are incubated with HLMs at a concentration of 1 uM, at 37° C., for a total of 60 min. The percent of compound remaining at 5, 15, 30, and 60 min is used to calculate the t1/2 (min), CLint (mL/min/kg), CLh (mL/min/kg), and % Qh. The assay is based on a 96-well format and can accommodate up to 92 compounds per plate (n=1).
Using the 96-well multi-channel head, the Biomek FX, equipped with a Peltier heating block/shaker, is programmed to accomplish the following steps: • 1. Pipette 175 uL of 1.15 mg/mL microsomes into each of the 96 conical inserts (Analytical Sales and Products, catalog number 96PL05) that fit into the plate of the Peltier heating block/shaker (the incubation plate) • 2. Add 5 uL of compounds from the assay plate to the microsomes and shake the mixture at 600 rpm at 42.1° C. for 10 min (a setting of 42.1° C. on the Peltier is required for the samples to incubate at 37° C.) • 3. After 10 min, prompt the user to add the NADPH plate to the deck and add 20 uL from the NADPH plate to the incubation plate to start the reaction • 4. Add 215 uL of 100%, cold acetonitrile containing an internal standard(s) to a 0 minute, 5 minute, 15 minute, 30 minute, and 60 minute “quench” plate • 5. At 0 min, 5 min, 15 min, 30 min, and 60 min into the incubation, aspirate 12 uL from the incubation mixture and add it to the quench solution to stop the reaction • 6. Add 185 uL HPLC grade water to each well of the 0, 5, 15, 30 and 60 minute quench plates to dilute compounds to the appropriate concentration for the mass spectrometer
After all time points are collected, the quench plates are sealed with 96-well pierceable plate mats or heat sealing foil and centrifuged at 3000 rpm for 15 min to pellet the microsomes.
The plates are analyzed using LC/MS/MS with electron spray ionization (ESI) and the previously determined MRM transitions. The LC method includes the following parameters:
Using an Excel template in Activitybase, the peak areas corresponding to 5, 15, 30 and 60 min are compared to the peak area at 0 min to calculate the percent of remaining compound using the following equation:
Percent compound remaining=(AUC at Time t min/AUC at Time 0 min)×100 where t=0, 5, 15, 30 or 60 min.
Time (min) is plotted against the natural logarithm (Ln) of the percent compound remaining to determine the slope. The slope is used to calculate t1/2 (min) using the equation, t1/2=0.693/slope.
Clh, Hepatic clearance • Hepatic flow*f(u)*Clint/(hepatic flow+f(u)*Clint)
Qh, % Hepatic blood flow • (Clh/Hepatic flow)*100
Preferred compounds have % Qh values of less than 24.

[3] = pH 2.2, aqueous buffer, Solubility (pH 2.2)
[4] = pH 4.5, aqueous buffer, Solubility (pH 4.5)
[5] = pH 6.8, aqueous buffer, Solubility (pH 6.8)

Chain of human soluble guanylate cyclase alpha 1 and beta 1 subunits (sGC) (Q02108 whole entry partner): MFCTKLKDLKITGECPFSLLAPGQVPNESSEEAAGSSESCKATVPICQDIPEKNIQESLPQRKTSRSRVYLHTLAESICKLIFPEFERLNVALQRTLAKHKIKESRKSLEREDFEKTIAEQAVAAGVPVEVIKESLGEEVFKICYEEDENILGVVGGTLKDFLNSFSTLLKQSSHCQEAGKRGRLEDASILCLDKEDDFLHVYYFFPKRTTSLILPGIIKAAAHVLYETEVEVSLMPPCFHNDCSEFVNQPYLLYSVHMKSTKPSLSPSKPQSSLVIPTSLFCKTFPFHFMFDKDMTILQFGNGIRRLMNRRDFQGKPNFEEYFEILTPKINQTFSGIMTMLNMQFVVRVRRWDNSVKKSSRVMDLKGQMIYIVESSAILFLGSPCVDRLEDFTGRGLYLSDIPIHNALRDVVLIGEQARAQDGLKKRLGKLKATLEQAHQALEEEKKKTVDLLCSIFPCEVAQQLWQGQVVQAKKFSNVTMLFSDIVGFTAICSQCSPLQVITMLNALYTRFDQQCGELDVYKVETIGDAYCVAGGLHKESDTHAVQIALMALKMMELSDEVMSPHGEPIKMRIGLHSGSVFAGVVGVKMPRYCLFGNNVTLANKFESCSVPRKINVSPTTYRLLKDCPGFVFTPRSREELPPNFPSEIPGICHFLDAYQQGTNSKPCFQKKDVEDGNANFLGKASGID
Chain of human soluble guanylate cyclase alpha 1 and beta 1 subunits (sGC) (Q02153 whole entry): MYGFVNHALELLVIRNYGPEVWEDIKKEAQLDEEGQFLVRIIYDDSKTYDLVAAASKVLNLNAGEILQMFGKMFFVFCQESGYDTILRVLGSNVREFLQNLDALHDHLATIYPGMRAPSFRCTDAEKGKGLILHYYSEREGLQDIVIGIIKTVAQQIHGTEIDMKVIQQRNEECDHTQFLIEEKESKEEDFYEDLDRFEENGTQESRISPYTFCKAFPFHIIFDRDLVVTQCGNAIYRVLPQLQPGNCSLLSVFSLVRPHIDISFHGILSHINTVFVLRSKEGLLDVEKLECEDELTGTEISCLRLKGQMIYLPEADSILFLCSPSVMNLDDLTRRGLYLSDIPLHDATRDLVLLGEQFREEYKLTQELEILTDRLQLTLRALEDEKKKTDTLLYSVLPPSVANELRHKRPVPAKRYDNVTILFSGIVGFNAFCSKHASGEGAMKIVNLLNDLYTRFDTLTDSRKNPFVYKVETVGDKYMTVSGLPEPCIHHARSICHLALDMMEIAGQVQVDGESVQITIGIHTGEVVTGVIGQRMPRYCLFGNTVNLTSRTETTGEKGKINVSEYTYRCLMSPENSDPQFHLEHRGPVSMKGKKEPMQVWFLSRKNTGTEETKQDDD

Row | EC50 [1] | solubility at 24 h (physchem; [3]) | solubility at 24 h (physchem; [4]) | solubility at 24 h (physchem; [5]) | Metabolic stability (Qh %), % hepatic blood flow [2] | SMILES
1 | 7 nM | 140 µg/mL (≈ 259 µM) | 120 µg/mL (≈ 222 µM) | 57 µg/mL (≈ 106 µM) | <24% | O=C(O)[C@@]12CCN(c3cccc(-c4ccccc4OCc4ccc5c(c4)CCN(C4CCOCC4)C5)n3)C[C@@H]1C2 [Compound 1, (1R,6S)-3-(6-{2-[2-(Tetrahydro-pyran-4-yl)-1,2,3,4-tetrahydro-isoquinolin-6-ylmethoxy]-phenyl}-pyridin-2-yl)-3-aza-bicyclo[4.1.0]heptane-6-carboxylic acid]
2 | 11 nM | 110 µg/mL (≈ 215 µM) | 90 µg/mL (≈ 176 µM) | 58 µg/mL (≈ 113 µM) | <24% | O=C(O)[C@@]12CCN(c3cccc(-c4ccccc4OCc4ccc5c(c4)CCN(C4COC4)C5)n3)C[C@@H]1C2 [Compound 2]
3 | 4 nM | 140 µg/mL (≈ 266 µM) | 120 µg/mL (≈ 228 µM) | 65 µg/mL (≈ 124 µM) | <24% | Cc1c(COc2ccccc2-c2cccc(N3CC[C@@]4(C(=O)O)C[C@H]4C3)n2)ccc2c1CCN(C1COC1)C2 [Compound 4]
4 | 3 nM | 160 µg/mL (≈ 281 µM) | 140 µg/mL (≈ 246 µM) | 79 µg/mL (≈ 139 µM) | 35% | Cc1c(COc2ccccc2-c2cccc(N3CC[C@@]4(C(=O)O)C[C@H]4C3)n2)ccc2c1CCN(CC1COCCO1)C2 (stereo partly shown) [Compound 5]
5 | 3 nM | 160 µg/mL (≈ 289 µM) | 130 µg/mL (≈ 235 µM) | 60 µg/mL (≈ 108 µM) | 54% | Cc1c(COc2ccccc2-c2cccc(N3CC[C@@]4(C(=O)O)C[C@H]4C3)n2)ccc2c1CCN(C1CCOCC1)C2 [Compound 6]
6 | 11 nM | 150 µg/mL (≈ 278 µM) | 120 µg/mL (≈ 222 µM) | 59 µg/mL (≈ 109 µM) | 45% | Cc1c(COc2ccccc2-c2cccc(N3CC[C@@]4(C(=O)O)C[C@H]4C3)n2)ccc2c1CCN([C@H]1CCOC1)C2 [Compound 7]
7 | 12 nM | 150 µg/mL (≈ 278 µM) | 110 µg/mL (≈ 204 µM) | 44 µg/mL (≈ 81.5 µM) | 49% | Cc1c(COc2ccccc2-c2cccc(N3CC[C@@]4(C(=O)O)C[C@H]4C3)n2)ccc2c1CCN([C@@H]1CCOC1)C2 [Compound 8]
8 | 1 nM | 130 µg/mL (≈ 228 µM) | 110 µg/mL (≈ 193 µM) | 53 µg/mL (≈ 93 µM) | 37% | Cc1c(COc2ccccc2-c2cccc(N3CC[C@@]4(C(=O)O)C[C@H]4C3)n2)ccc2c1CCN(C[C@H]1COCCO1)C2 [Compound 9]
9 | 9 nM | 130 µg/mL (≈ 228 µM) | 110 µg/mL (≈ 193 µM) | 55 µg/mL (≈ 96.5 µM) | 32% | Cc1c(COc2ccccc2-c2cccc(N3CC[C@@]4(C(=O)O)C[C@H]4C3)n2)ccc2c1CCN(C[C@@H]1COCCO1)C2 [Compound 10]
10 | 4 nM | 140 µg/mL (≈ 253 µM) | 110 µg/mL (≈ 199 µM) | 46 µg/mL (≈ 83.1 µM) | 53% | Cc1c(COc2ccccc2-c2cccc(N3CC[C@@]4(C(=O)O)C[C@H]4C3)n2)ccc2c1CCN([C@H]1CCCOC1)C2 [Compound 11]
11 | 12 nM | 110 µg/mL (≈ 199 µM) | 90 µg/mL (≈ 163 µM) | 33 µg/mL (≈ 59.6 µM) | <24% | Cc1cc(COc2ccccc2-c2cccc(N3CC[C@@]4(C(=O)O)C[C@H]4C3)n2)cc2c1CN(C1CCOCC1)CC2 [Compound 12]
12 | 6 nM | 140 µg/mL (≈ 253 µM) | 120 µg/mL (≈ 217 µM) | 71 µg/mL (≈ 128 µM) | 42% | Cc1cccc(-c2cccc(N3CC[C@@]4(C(=O)O)C[C@H]4C3)n2)c1OCc1ccc2c(c1)CCN(C1CCOCC1)C2 [Compound 13]
13 | 3 nM | 120 µg/mL (≈ 211 µM) | 94 µg/mL (≈ 166 µM) | 53 µg/mL (≈ 93.4 µM) | 61% | Cc1cccc(-c2cccc(N3CC[C@@]4(C(=O)O)C[C@H]4C3)n2)c1OCc1ccc2c(c1C)CCN(C1CCOCC1)C2 [Compound 14]
14 | 2 nM | 110 µg/mL (≈ 194 µM) | 90 µg/mL (≈ 159 µM) | 51 µg/mL (≈ 89.8 µM) | 51% | Cc1cc(COc2c(C)cccc2-c2cccc(N3CC[C@@]4(C(=O)O)C[C@H]4C3)n2)cc2c1CN(C1CCOCC1)CC2 [Compound 15]
15 | 8 nM | 130 µg/mL (≈ 235 µM) | 96 µg/mL (≈ 173 µM) | 41 µg/mL (≈ 74 µM) | 28% | Cc1ccc(OCc2ccc3c(c2)CCN(C2CCOCC2)C3)c(-c2cccc(N3CC[C@@]4(C(=O)O)C[C@H]4C3)n2)c1 [Compound 16]
16 | 22 nM | 100 µg/mL (≈ 190 µM) | 83 µg/mL (≈ 158 µM) | 39 µg/mL (≈ 74.2 µM) | 33% | Cc1ccc(OCc2ccc3c(c2)CCN(C2COC2)C3)c(-c2cccc(N3CC[C@@]4(C(=O)O)C[C@H]4C3)n2)c1 [Compound 17]
17 | 2 nM | 130 µg/mL (≈ 229 µM) | 99 µg/mL (≈ 174 µM) | 38 µg/mL (≈ 66.9 µM) | 34% | Cc1ccc(OCc2ccc3c(c2C)CCN(C2CCOCC2)C3)c(-c2cccc(N3CC[C@@]4(C(=O)O)C[C@H]4C3)n2)c1 [Compound 18]
18 | 8 nM | 110 µg/mL (≈ 204 µM) | 82 µg/mL (≈ 152 µM) | 32 µg/mL (≈ 59.3 µM) | 63% | Cc1ccc(OCc2ccc3c(c2C)CCN(C2COC2)C3)c(-c2cccc(N3CC[C@@]4(C(=O)O)C[C@H]4C3)n2)c1 [Compound 19]
19 | 21 nM | 110 µg/mL (≈ 204 µM) | 96 µg/mL (≈ 178 µM) | 64 µg/mL (≈ 119 µM) | <24% | Cc1cccc(-c2cccc(N3C[C@@H]4C[C@]4(C(=O)O)C3)n2)c1OCc1ccc2c(c1)CCN(C1CCOCC1)C2 [Compound 20]
20 | 11 nM | 120 µg/mL (≈ 217 µM) | 110 µg/mL (≈ 199 µM) | 70 µg/mL (≈ 126 µM) | <24% | Cc1cccc(-c2cccc(N3C[C@@H]4C[C@]4(C(=O)O)C3)n2)c1OCc1ccc2c(c1C)CCN(C1CCOCC1)C2 [Compound 21]
21 | 6 nM | 110 µg/mL (≈ 199 µM) | 90 µg/mL (≈ 163 µM) | 60 µg/mL (≈ 108 µM) | <24% | Cc1cc(COc2c(C)cccc2-c2cccc(N3C[C@@H]4C[C@]4(C(=O)O)C3)n2)cc2c1CN(C1CCOCC1)CC2 [Compound 22]
22 | 6 nM | 100 µg/mL (≈ 190 µM) | 88 µg/mL (≈ 167 µM) | 69 µg/mL (≈ 131 µM) | <24% | Cc1cc(COc2c(C)cccc2-c2cccc(N3C[C@@H]4C[C@]4(C(=O)O)C3)n2)cc2c1CN(C1COC1)CC2 [Compound 23]
23 | 6 nM | 110 µg/mL (≈ 204 µM) | 98 µg/mL (≈ 182 µM) | 69 µg/mL (≈ 128 µM) | <24% | Cc1cc(COc2c(C)cccc2-c2cccc(N3C[C@@H]4C[C@]4(C(=O)O)C3)n2)cc2c1CN(C1CCOC1)CC2 (stereo partly shown) [Compound 24]
